Data: patent US20220152031A1, “PYRIDAZINONES AND METHODS OF USE THEREOF” (Goldfinch Bio, Inc., priority 2019, published 2022)

Key:
TRPC5 [1] = target: T1, TRPC5 (Homo sapiens, UniProt Q9UL62); experiment: TRPC5 activity assay (FLIPR calcium fluorescence, HEK-TREx hTRPC5 cells); type: cell-based
T1 construct: expressed in transfected cells
T1 sequence (Q9UL62 1-973): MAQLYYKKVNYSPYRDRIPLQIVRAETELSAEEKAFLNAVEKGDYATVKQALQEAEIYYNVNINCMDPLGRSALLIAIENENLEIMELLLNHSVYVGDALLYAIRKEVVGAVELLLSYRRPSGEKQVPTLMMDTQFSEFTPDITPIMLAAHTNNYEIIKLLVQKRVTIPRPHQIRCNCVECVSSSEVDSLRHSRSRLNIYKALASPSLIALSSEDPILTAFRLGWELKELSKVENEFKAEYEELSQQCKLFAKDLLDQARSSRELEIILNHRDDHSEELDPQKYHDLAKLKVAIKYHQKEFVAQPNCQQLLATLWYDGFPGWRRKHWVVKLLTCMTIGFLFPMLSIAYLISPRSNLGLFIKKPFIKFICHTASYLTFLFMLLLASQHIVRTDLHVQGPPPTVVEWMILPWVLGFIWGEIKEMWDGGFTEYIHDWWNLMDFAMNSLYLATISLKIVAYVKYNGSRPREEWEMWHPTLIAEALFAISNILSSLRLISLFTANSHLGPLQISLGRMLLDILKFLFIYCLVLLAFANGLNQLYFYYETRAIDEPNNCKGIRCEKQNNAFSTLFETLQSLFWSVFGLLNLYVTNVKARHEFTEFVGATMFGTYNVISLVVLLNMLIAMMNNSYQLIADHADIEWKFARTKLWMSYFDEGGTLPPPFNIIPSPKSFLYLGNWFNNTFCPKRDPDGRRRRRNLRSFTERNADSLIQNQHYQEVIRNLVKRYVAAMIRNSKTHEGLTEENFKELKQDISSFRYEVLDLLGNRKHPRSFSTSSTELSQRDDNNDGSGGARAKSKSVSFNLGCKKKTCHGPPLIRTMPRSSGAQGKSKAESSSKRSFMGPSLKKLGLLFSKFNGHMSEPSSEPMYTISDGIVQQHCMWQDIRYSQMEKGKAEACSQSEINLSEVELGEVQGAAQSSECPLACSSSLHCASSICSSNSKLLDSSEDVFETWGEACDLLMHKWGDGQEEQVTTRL
Procedure: ICLN-1633 cells (HEK-TREx hTRPC5) expressing TRPC5 were generated as follows. Commercially available HekTrex-293 cells were seeded at 0.7×10^6 cells/well in a 1×6-well plate 24 hrs prior to transfection using 2 mL cell growth media containing no antibiotics (lx DMEM/high glucose (Hyclone #SH30022.02); 10% fetal bovine serum (Sigma) 2 mM sodium pyruvate, 10 mM HEPES). […] On day 2, 2 μg of plasmid DNA plus 6 μl of Xtreme-GENE HP reagent in Optimem (200 μl total volume) was prepared and incubated for 15 min at room temperature. This plasmid solution was then gently overlayed dropwise onto each well and the plate was gently swirled to mix complex with the media for approximately 30 seconds. Transfected cells were incubated at 37° C. in a 10% CO2 incubator for 24 hrs. The transfected cells were harvested and transferred into 2×150 mm dishes containing cell growth media with no antibiotics at 37° C.
The next day selection was initiated to generate a stable pool by adding cell growth media containing 150 μg/mL Hygromycin and 5 μg/mL Blasticidin and cells were allowed to grow. Media with the selection agent was changed every 1-2 days as needed to remove dead cells. After 7 days, the hygromycin concentration was reduced to 75 μg/mL and cells growth was allowed to continue.
Single clones were selected as follows. The stable pool was diluted to 10 cells/mL and seeded (100 μl/well) into 24×96 well plates (˜1 cell/well) and allowed to grow for 7 days in cell growth media. Fresh media (100 μl) was added and the cells allowed to grow for another 1-2 weeks and then stored frozen or used immediately.
10-point dose response curves were generated using the Echo-550 acoustic dispenser. Compound source plates were made by serially diluting compound stocks to create 10 mM, 1 mM, and 0.1 mM solutions in DMSO into Echo certified LDV plates. The Echo then serially spotted 100% DMSO stock solutions into source dose response plates to generate a 4-fold dilution scheme. 100% DMSO was added to the spotted dose response plates to bring the final volume to 5 μl. 300 nl of the dose response stock plate was then spotted into pre-incubation and stimulation assay plates. 50 μl of pre-incubation buffer and 100 μl of stimulation buffer was then added to the plates resulting in a final assay test concentration range of 30 μM to 0.0001 μM with a final DMSO concentration of 0.3%.
Human ICLN-1633 cells expressing were plated onto 384 well, black PDL-coated microplates and maintained in TRPC5 growth media the day prior to use for experiments. TRPC5 expression was induced by the application of 1 μg/mL tetracycline at the time of plating. […] Cells are incubated at room temperature, protected from light, for 60-90 minutes. After the incubation period, the dye is removed and replaced with 10 μl of EBSS. Cell, pre-incubation and stimulation plates are loaded onto the FLIPR-II and the assay is initiated. The FLIPR measures a 10 second baseline and then adds 10 μl of 2× compounds (or controls). Changes in fluorescence are monitored for an additional 5 minutes. After the 5 minute pre-incubation, 20 μl of 2× Riluzole (with 1× compound or controls) is added to the cell plate. The final Riluzole stimulation concentration in the assay is 30 μM. After the Riluzole addition, changes in fluorescence are monitored for an additional 5 minutes.
Compound modulation of TRPC5 calcium response was determined as follows. After the Englerin A, fluorescence was monitored for a 5-minute period. The maximum relative fluorescence response (minus the control response of 1 μM of an internal control compound known to maximally block TRPC5 calcium response, the “REF INHIB” in the formula below) was captured and exported from the FLIPR.
Compound effect is calculated as % inhibition using the following formula: […]
wherein “RFU” is the relative fluorescent units.

TRPC5 [2] = target: T1, TRPC5; experiment: Automated patch clamp assay, HEK293 cells overexpressing TRPC5, current block after rosiglitazone stimulation; type: cell-based; conditions: whole cell automated patch
[3] = Table 6, HEK-TREx hTRPC5, read-out: hTRPC5-FLIPR IC50
[4] = Table 7, HEK-TREx hTRPC5, read-out: TRPC5-FLIPR IC50

Structure (SMILES)	IC50 (TRPC5 [1]; [3]) [nM]	IC50 (TRPC5 [1]; [4]) [nM]	other results
CC(c1ccc(F)cc1C(F)(F)F)N1CCN(c2cn[nH]c(=O)c2Cl)CC1=O (single isomer, unassigned) [MF]	0.01 to 1000	–	–
O=C1CN(c2cn[nH]c(=O)c2Cl)CCN1Cc1ccccc1C(F)(F)F [AO]	–	–	IC50 (TRPC5 [2]; 80 mV, read-out: TRPC5_QP_XC50_80): 0.01 to 1000 nM; IC50 (TRPC5 [2]; 100 mV, read-out: TRPC5_QP_X50_100): 0.01 to 1000 nM
CCc1ncccc1N(CC)C1CCN(c2cn[nH]c(=O)c2Cl)CC1 [LW, 4-chloro-5-[4-[ethyl(2-ethylpyridin-3-yl)amino]piperidin-1-yl]-2,3-dihydropyridazin-3-one]	0.01 to 1000	–	–
CCc1ncccc1[C@H](C)N1CCN(c2cn[nH]c(=O)c2Cl)CC1 [LY, 4-chloro-5-[4-[(1S)-1-(2-ethylpyridin-3-yl)ethyl]piperazin-1-yl]-2,3-dihydropyridazin-3-one]	0.01 to 1000	–	–
C[C@@H]1Cc2c(nnn2[C@H](C)c2ccccc2C(F)(F)F)CN1c1cn[nH]c(=O)c1Cl [MX, 4-chloro-5-[(6R)-6-methyl-1-[(1R)-1-[2-(trifluoromethyl)phenyl]ethyl]-1H,4H,5H,6H,7H-[1,2,3]triazolo[4,5-c]pyridin-5-yl]-2,3-dihydropyridazin-3-one]	–	0.01 to 1000	–
CN1CCN(C(=O)c2nn(Cc3ccccc3C(F)F)c3c2CN(c2cn[nH]c(=O)c2Cl)CC3)CC1 [OM]	–	0.01 to 1000	–
NC(=O)c1nn(Cc2ccccc2C(F)(F)F)c2c1CN(c1cn[nH]c(=O)c1Cl)CC2 [OP, 5-(5-Chloro-6-oxo-1,6-dihydropyridazin-4-yl)-1-[[2-(trifluoromethyl)phenyl]methyl]-1H,4H,5H,6H,7H-pyrazolo[4,3-c]pyridine-3-carboxamide]	–	0.01 to 1000	–
CN1CCN(Cc2nn(Cc3ccccc3C(F)F)c3c2CN(c2cn[nH]c(=O)c2Cl)CC3)CC1 [OU, 4-Chloro-5-(1-[[2-(difluoromethyl)phenyl]methyl]-3-[(4-methylpiperazin-1-yl)methyl]-1H,4H,5H,6H,7H-pyrazolo[4,3-c]pyridin-5-yl)-2,3-dihydropyridazin-3-one]	–	0.01 to 1000	–
CN(C)C(=O)c1nc2c(n1Cc1ccccc1C(F)(F)F)CCN(c1cn[nH]c(=O)c1Cl)C2 [PW]	–	0.01 to 1000	–
CN(c1ncc2c(n1)CN(c1cn[nH]c(=O)c1Cl)C2)c1ccccc1C(F)(F)F [QM]	–	0.01 to 1000	–
